The source of these data is patent publication US11730746B2, “17beta-heterocyclyl-digitalis like compounds for the treatment of heart failure” (priority 2018, dated 2023).

Molecules are shown by their SMILES.

The target in one assay is T1, Estrogen ERβ (Homo sapiens, UniProt Q92731).
T1 construct: Eurofins (contract assay) 226050
As to the kind of experiment: Receptor binding 226050. Here is the method:
(§1) Radioligand binding to a panel of receptors was carried out by Eurofins on crude membrane preparations according to published procedures and by using appropriate reference standard (Eurofins, CVie 101 compound code PT #1207859, study #AB76416, quote #68407-1, for Cvie Therapeutics Limited, Taiwan (R.OC.) on Mar. 5, 2017). CVie 101 was tested at the concentration of 10 μM. No significant interaction was documented, except for Sodium Channel, site 2 from rat (cat #279510), where a significant response (≥50%) was noted (Table 7).

In the next assay the target is T2, Monoamine Oxidase MAO-B (Homo sapiens, UniProt P27338).
T2 construct: Eurofins 140120
T2 sequence (P27338 whole entry): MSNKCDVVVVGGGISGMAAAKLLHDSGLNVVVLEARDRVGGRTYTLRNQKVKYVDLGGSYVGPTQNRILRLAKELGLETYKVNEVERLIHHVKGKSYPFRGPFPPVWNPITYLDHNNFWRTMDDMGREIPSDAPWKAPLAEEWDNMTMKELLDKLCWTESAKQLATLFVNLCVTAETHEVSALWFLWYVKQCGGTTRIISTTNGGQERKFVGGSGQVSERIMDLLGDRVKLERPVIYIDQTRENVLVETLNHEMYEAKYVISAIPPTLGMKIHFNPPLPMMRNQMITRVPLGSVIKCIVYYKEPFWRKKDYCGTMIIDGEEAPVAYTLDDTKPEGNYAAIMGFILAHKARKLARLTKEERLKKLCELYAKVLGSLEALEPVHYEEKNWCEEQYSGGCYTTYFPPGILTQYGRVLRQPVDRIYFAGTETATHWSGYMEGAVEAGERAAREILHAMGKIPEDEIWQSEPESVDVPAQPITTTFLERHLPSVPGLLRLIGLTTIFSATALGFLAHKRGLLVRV
As to the kind of experiment: Eurofins panel 140120. The class given is biochemical. Here is the method: as §1

For the next assay, the target named is T3, Estrogen ERα (Homo sapiens, UniProt P03372).
T3 construct: Eurofins (contract assay) 226010
T3 sequence (P03372 whole entry): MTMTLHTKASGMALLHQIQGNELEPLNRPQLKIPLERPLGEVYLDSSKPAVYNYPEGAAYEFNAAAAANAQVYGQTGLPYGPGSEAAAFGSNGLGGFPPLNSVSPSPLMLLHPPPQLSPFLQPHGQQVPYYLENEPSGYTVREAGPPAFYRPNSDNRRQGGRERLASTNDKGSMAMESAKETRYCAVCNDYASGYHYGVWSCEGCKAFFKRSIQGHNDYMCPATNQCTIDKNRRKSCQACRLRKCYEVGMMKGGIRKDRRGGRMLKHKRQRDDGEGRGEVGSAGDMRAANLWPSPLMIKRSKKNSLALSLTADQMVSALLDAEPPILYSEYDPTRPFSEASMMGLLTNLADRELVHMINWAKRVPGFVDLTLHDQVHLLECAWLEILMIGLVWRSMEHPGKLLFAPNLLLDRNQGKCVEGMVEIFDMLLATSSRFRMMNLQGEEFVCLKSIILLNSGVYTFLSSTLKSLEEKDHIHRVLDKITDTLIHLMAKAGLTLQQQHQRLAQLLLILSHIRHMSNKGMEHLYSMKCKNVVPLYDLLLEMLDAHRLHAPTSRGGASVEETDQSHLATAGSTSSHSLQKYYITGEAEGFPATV
As to the kind of experiment: Receptor binding 226010. Here is the method:
as §1

The target in a further assay is T4, Glucocorticoid (Homo sapiens, UniProt P04150).
T4 construct: Eurofins (contract assay) 232030
T4 sequence (P04150 whole entry): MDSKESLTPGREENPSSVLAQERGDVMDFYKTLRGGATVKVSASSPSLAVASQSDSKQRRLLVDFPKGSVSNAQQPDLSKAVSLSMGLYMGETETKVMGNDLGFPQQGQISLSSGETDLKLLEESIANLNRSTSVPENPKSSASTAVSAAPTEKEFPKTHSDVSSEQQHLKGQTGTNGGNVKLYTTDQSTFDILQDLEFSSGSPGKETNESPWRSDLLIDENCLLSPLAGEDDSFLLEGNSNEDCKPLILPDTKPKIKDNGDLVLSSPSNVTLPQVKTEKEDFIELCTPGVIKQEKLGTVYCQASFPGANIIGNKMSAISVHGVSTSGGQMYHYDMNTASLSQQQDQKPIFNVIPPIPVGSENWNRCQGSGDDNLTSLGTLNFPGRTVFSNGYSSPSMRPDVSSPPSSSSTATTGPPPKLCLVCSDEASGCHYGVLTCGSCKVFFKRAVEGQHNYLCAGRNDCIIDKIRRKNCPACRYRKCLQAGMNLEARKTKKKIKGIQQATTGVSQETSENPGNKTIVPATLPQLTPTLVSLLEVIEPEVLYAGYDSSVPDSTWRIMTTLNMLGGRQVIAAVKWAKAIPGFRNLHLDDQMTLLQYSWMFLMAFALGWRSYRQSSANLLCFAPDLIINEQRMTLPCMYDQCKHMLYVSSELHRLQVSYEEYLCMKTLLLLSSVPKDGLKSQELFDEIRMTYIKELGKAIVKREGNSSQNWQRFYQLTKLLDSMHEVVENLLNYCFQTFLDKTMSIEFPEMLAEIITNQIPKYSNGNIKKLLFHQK
As to the kind of experiment: Receptor binding 232030. Here is the method: as §1

The next assay relates to GABAA, Muscimol, Central. As to the kind of experiment: Receptor binding 226500. The settings on record: 10 μM. Details: species or system rat. Here is the method: as §1
The target in the next assay is T5, dog renal Na,K-ATPase (Canis lupus familiaris, UniProt P50997).
T5 construct: incubated with 0.3 μg of purified dog kidney enzyme; from tissue; host or cells: dog kidney outer medulla
As to the kind of experiment: Inhibition of dog renal Na,K-ATPase activity (32P-ATP release). The format is biochemical. Here is the method: Kidneys were sliced and the outer medulla was dissected, pooled and suspended (1 g/10 ml) in a sucrose-histidine solution, containing 250 mM sucrose, 30 mM histidine and 5 mM EDTA, pH 7.2 and homogenized. […] The pellet was suspended in the sucrose-histidine buffer and incubated for 20 min with a sodium-dodecyl-sulphate (SDS) solution dissolved in a gradient buffer, containing 25 mM imidazole and 1 mM EDTA, pH 7.5. […] The pellet was suspended in the gradient buffer.
Increasing concentrations of the standard ouabain, or tested compound, were incubated with 0.3 μg of purified dog kidney enzyme for 10 min at 37° C. in 120 μl final volume of a medium, containing 140 mM NaCl, 3 mM MgCl2, 50 mM Hepes-Tris, 3 mM ATP, pH 7.5. […] The inhibitory activity was expressed as percent of the control samples carried out in the absence of ouabain or tested compound.

The target in a further assay is T6, Adrenergic β2 (Homo sapiens, UniProt P07550).
T6 construct: Eurofins 204110; host or cells: crude membrane preparation
T6 sequence (P07550 whole entry): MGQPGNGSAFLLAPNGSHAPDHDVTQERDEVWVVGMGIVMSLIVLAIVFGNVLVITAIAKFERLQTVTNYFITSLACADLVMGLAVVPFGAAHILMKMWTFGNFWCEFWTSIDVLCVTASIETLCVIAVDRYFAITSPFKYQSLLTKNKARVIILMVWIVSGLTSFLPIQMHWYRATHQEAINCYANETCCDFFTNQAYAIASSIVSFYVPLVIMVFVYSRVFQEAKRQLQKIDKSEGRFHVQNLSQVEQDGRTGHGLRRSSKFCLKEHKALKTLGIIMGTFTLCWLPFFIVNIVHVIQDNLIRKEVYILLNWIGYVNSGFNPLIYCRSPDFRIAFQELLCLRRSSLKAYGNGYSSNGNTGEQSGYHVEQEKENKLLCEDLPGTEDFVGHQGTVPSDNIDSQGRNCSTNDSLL
As to the kind of experiment: Receptor binding 204110. Here is the method: as §1

Assay [1] deals with guinea pig isolated cardiomyocytes. As to the kind of experiment: SR Ca2+ uptake function (loading protocol) in isolated ventricular cardiomyocytes. The format is cell-based. The settings on record: 100 nM. Here is the method: The compounds were characterized for their effect on (i) SR Ca^2+ uptake function, (ii) action potential (AP) in myocytes freshly dissociated from guinea-pig ventricles by retrograde coronary perfusion with enzymatic solution (Rocchetti M et al. J Pharmacol Exper Therap 2005; 313(1):207-215).
Drug effects on SR Ca^2+ uptake rate were evaluated with an SR “loading protocol” specifically devised to rule out the contribution of the Na/Ca exchanger (NCX) and to assess the uptake rate starting at low levels of SR Ca^2+ loading. Under voltage-clamp conditions, intracellular Ca^2+ concentration was dynamically measured by epifluorescence (Fluo4-AM). Membrane current, whose time-dependent component mainly reflected ICaL, was simultaneously recorded. The SR loading protocol consisted in emptying the SR (by a brief caffeine pulse) and then progressively refilling it by voltage steps activating Ca^2+ influx through the sarcolemmal Ca^2+ channel (ICaL). NCX was blocked by omission of Na^+ from intracellular and extracellular solutions. The procedure is in agreement with published methods, with minor modifications (Rocchetti M et al. J Pharmacol Exper Therap 2005; 313(1):207-215).
Drug effects on SR Ca^2+ uptake were analysed by considering multiple parameters: 1) the rate at which Ca^2+ transient (CaT) amplitude increased during the loading protocol, which reflects the rate at which the SR refilled and 2) the time constant of cytosolic Ca^2+ decay (Tdecay) within each pulse, reflecting net Ca^2+ transport rate (by SERCA2a) across the SR membrane (a decrease in Tdecay corresponds to enhanced SR Ca^2+ uptake).

Another assay deals with T7, Sigma σ2 (Homo sapiens, UniProt Q5BJF2).
T7 construct: Eurofins (contract assay) 299007
T7 sequence (Q5BJF2 whole entry): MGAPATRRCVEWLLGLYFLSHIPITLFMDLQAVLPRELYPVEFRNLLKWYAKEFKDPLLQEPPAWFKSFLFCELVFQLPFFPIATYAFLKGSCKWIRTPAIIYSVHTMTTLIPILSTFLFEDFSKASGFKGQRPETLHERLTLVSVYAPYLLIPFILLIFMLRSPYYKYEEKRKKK
As to the kind of experiment: Receptor binding 299007. Here is the method:
as §1

A further assay deals with T8, Monoamine Oxidase MAO-A (Homo sapiens, UniProt P21397).
T8 construct: Eurofins 140010
T8 sequence (P21397 whole entry): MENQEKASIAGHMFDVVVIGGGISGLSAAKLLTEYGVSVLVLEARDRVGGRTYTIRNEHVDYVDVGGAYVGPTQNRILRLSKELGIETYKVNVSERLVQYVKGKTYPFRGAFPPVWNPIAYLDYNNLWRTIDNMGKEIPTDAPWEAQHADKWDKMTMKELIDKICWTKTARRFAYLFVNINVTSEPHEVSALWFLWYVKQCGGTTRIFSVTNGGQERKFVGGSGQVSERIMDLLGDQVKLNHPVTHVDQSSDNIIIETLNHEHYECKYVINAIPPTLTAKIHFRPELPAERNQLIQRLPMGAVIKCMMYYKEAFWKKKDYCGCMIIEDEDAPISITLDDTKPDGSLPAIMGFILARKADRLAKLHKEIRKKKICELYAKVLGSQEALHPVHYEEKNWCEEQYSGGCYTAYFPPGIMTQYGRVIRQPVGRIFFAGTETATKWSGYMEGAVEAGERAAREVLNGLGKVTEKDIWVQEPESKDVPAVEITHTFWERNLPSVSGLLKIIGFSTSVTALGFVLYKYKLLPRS
As to the kind of experiment: Eurofins panel 140010. The class given is biochemical. Here is the method:
as §1

The next assay addresses T9, Insulin (Rattus norvegicus, UniProt P15127).
T9 construct: Eurofins (contract assay) 243000
As to the kind of experiment: Receptor binding 243000. Here is the method:
as §1

T1 sequence (Q92731 whole entry): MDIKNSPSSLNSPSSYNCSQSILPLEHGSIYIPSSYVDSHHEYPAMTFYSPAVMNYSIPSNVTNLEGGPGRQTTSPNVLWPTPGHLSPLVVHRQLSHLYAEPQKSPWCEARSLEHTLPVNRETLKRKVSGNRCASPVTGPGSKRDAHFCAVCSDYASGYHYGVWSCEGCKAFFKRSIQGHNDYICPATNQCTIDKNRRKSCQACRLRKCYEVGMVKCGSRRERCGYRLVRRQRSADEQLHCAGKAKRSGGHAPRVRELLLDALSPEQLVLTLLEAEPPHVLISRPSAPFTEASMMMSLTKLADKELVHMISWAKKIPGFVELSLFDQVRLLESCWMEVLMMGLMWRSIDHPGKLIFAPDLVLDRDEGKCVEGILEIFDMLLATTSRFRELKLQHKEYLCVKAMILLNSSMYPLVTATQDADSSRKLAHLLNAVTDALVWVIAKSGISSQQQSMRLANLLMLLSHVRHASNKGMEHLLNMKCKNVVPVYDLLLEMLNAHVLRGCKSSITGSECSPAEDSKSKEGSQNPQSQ
T9 sequence (P15127 27-759 limits assumed): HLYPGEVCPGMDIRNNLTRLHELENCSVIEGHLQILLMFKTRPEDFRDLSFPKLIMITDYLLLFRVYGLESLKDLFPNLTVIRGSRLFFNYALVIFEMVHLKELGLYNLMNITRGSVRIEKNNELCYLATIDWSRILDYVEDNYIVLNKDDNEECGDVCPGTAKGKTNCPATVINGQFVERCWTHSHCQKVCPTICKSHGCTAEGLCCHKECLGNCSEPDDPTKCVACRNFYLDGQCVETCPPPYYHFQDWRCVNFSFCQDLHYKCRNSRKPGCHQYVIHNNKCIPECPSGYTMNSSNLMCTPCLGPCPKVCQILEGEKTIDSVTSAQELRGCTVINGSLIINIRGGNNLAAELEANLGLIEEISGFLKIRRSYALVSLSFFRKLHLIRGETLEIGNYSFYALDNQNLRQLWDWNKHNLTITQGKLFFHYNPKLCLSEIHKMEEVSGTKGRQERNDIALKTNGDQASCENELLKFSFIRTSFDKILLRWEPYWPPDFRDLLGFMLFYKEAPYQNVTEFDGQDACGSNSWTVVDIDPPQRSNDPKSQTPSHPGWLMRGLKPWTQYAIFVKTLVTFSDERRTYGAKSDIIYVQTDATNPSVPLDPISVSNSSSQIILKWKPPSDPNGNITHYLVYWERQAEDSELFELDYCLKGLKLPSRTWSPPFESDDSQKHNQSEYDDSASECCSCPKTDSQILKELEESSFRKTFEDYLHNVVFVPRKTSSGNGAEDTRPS
T9 sequence (P15127 764-1383 partner limits assumed): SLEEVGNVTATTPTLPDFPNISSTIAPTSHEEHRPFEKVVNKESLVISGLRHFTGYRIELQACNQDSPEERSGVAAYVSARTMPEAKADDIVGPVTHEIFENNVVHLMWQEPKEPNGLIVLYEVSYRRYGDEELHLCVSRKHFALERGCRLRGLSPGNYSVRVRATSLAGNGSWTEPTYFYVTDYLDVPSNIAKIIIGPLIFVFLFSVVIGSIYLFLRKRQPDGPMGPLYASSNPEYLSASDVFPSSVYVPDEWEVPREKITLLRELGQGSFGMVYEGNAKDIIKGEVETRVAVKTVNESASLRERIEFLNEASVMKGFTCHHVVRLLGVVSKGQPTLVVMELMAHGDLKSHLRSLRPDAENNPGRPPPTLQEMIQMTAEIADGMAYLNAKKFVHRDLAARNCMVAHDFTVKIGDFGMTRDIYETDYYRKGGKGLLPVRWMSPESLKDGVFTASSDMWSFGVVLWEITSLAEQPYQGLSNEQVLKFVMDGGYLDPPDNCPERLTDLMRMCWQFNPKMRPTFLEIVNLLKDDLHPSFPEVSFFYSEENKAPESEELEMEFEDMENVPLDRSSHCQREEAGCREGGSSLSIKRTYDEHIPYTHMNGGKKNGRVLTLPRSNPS

What is called inhibition is the relative decrease from the control value, in per cent. A word on the IC50: it is the concentration that inhibits the measured activity by half. `C[C@]12CC[C@H](O)C[C@H]1CCC1C2CC[C@]2(C)[C@@H](c3c[nH]cn3)CC[C@]12O` (stereo partly drawn) [CVie 101, 3β-hydroxy-5β-10β-methyl-13β-methyl-14β-hydroxy-17β-(imidazol-4-yl)androstane]: the inhibition at 10 µM at Estrogen ERβ amounted to 17%; on Monoamine Oxidase MAO-B, 4%; on Estrogen ERα, 14%; at Glucocorticoid it was 10%; at Adrenergic β2, 1%; on Sigma σ2 it was 30%. The inhibition at 10 µM against Monoamine Oxidase MAO-A was 4%; on Insulin, -7%. The “% inhib” value in the assay on GABAA, Muscimol, Central is listed as −9%. On dog renal Na,K-ATPase, this compound came in with an IC50 of 710 nM. Besides, in [1] (FIG. 1A, 1C), the “rate of Ca2+ transient (CaT) increment during SR reloading” value was “increased”. Further, the “time constant of cytosolic Ca2+ decay within each pulse (τdecay)” value in assay [1] (FIG. 1B, 1D) is “decreased”.
